Assay results reported in patent US6030980A, “Agent for the treatment of infections” (priority 1994, dated 2000).

Tests used:
[1] = system: herpes simplex virus type I; assay: animal or person; type: in vivo, BALB/c male mice; conditions: thermally injured mice, HSV type I 3×10^3 PFU/kg i.p., oral 1 μg/kg of aconite-alkaloid; for responders at 0.001 mg/kg: Mus musculus, 600 h, read-out: survival rate; for average survival days: 25 days
[2] = system: suppressor cell activities induced in thermally injured mice; type: cell-based, BALB/c mice; conditions: 1 μg/kg of aconite-alkaloid given twice to contrasuppressor cell donors; normal model 12413 ± 1438, susceptibility model 2650 ± 70
[3] = Acute toxicity of aconite-alkaloids; conditions: in vivo
[4] = system: AIDS virus (LP-BM5 virus); assay: Survival of opportunistic infection model mice infected with AIDS virus (LP-BM5 virus) (Experimental Example 3); type: in vivo; conditions: 1 μg/kg oral, observed for 150 days, saline 0%
Protocol: Mice as opportunistic infection model inoculated intraperioneally with 0.1 ml/mouse of a culture supernatant of AIDS virus (LP-BM5 virus) infected SC-1 cells were orally given benzoylmesaconine or physiological saline.

[5] = system: suppressor cell activities; assay: Contrasuppressor cell activities in MLTR, suppressor cells from LP-BM5 virus infected mice; type: cell-based; conditions: 1 μg/kg, suppressor cells from mice 110 days after infection with LP-BM5 virus
Protocol: Contrasuppressor cell activities, i.e. cells activities suppressing the suppressor cell activities induced in thermally injured mice were determined in mixed lymphocyte tumor cell reaction (MLTR) by mixing and incubating the following cells for 5 days in a 96-wells round-bottom microplate.
Reaction cells: Spleen mononuclear cells (referred to hereinafter as SMNCs) (5.0×10^4 cells/well) obtained from normal BALB/c mice.
Stimulator cells: EL-4 tumor cells (5.0×10^4 cells/well).
Suppressor cells: SMNCs (2.5×10^5 cells/well) obtained from the model of increased susceptibility to infections. […]
Before incubation, the cells except for the reaction cells were treated with 40 μg/ml of mitomycin C solution at 37° C. for 30 minutes. Twenty-four hours before the conclusion of 3-days incubation, 0.5 μCi/well of ^3 H-thymidine was added to the well, and the amount of ^3 H-thymidine incorporated into the reaction cells was determined in a liquid scintillation counter to evaluate the contrasuppressor cell activities induced against the suppressor cell activities by administration of the active ingredient of the present agent.
The contrasuppressor cell activities induced against suppressor cell activities by administration of benzoylmesaconine was evaluated in the same manner as in "(3) Measurement of contrasuppressor cell activities" in Experimental Example 1. […]

cytomegalovirus (CMV) = assay: Survival of thermally injured mice infected with cytomegalovirus (Experimental Example 7); conditions: CMV 2.5×10^3 PFU/mouse i.v., 10 μg/kg/day oral, 25 days
CMV = conditions: SCID mice, 10 μg/kg/day oral
[6] = system: herpes simplex virus type I; assay: Survival of mice infected with a lethal dose of herpes simplex virus type I (Experimental Example 2); type: in vivo, BALB/c mice; conditions: HSV type I 3×10^5 PFU/kg i.p., 10 μg/kg oral, before and after infection
Protocol: In this example, 7-week-old BALB/c mice were infected intraperioneally with a lethal dose (3×10^5 PFU/kg) of herpes simplex virus type I. Two days before the infection, 1 day and 4 days after the infection, the active ingredient of the present agent (10 μg/kg) or physiological saline (control) was orally administered through a stomach probe into the mice. Twenty-five days after the infection, their survival rate was determined to evaluate the action of the active ingredient. In this experiment, the experimental mice were given the active ingredient of the present agent before and after infection with the virus to evaluate its action mainly on the prevention and treatment of the virus infection.

[7] = J. Pharm. Dyu.7, 836-848 (1984); cited from earlier work
[8] = twenty-five days after infection

| SMILES | responders at 0.001 mg/kg [1, 8] | average survival days [1] | incorporation of ^3 H-thymidine [2] | LD50 [3] | further results |
| --- | --- | --- | --- | --- | --- |
| CCN1CC2(COC)C(O)CC(OC)C34C5CC6(O)C(OC)C(O)C(O)(C5C6OC(=O)c5ccc(OC)cc5)C(C(OC)C23)C14 (centres unmarked) [14-anisoylaconine] | 80% | > 22.5 days | 12720 ± 1578 CPM ± SE | 20 to 500 mg/kg |  |
| CCN1CC2(COC)C(O)CC(OC)C34C5CC6(O)C(OC)C(=O)C(C5C6OC(=O)c5ccccc5)C(C(OC)C23)C14 (stereo not drawn) [16-epi-pyraconitine] | 70% | > 21.2 days | 15654 ± 1209 CPM ± SE | 20 to 500 mg/kg |  |
| COCC12CN(C)C3C4C(OC)C1C3(C(OC)CC2O)C1CC2(O)C(OC)C(=O)C4C1C2OC(=O)c1ccccc1 (stereo not drawn) [16-epi-pyromesaconitine] | 80% | > 22.4 days | 16891 ± 2232 CPM ± SE | 20 to 500 mg/kg |  |
| C=C1C2CCC3(C4CC5C6(C)CCCC5(C(O4)N(CCO)C6)C3C2)C1O (centres unmarked) [ajaconine] | 80% | > 22.3 days | 17655 ± 1879 CPM ± SE | 20 to 500 mg/kg |  |
| CCN1CC2(COC)C(O)CC(OC)C34C5CC6(O)C(OC)C(O)C(O)(C5C6OC(=O)c5ccccc5)C(C(OC)C23)C14 (centres unmarked) [benzoylaconine] | 80% | > 22.5 days | 16140 ± 1738 CPM ± SE | 20 to 500 mg/kg |  |
| COCC12CCC(OC)C34C5CC6(O)C(OC)C(O)C(O)(C5C6OC(=O)c5ccccc5)C(C(OC)C13)C4N(C)C2 (centres unmarked) [benzoylhypaconine] | 80% | > 22.4 days | 21319 ± 903 CPM ± SE | 20 to 500 mg/kg |  |
| COCC12CN(C)C3C4C(OC)C1C3(C(OC)CC2O)C1CC2(O)C(OC)C(O)C4(O)C1C2OC(=O)c1ccccc1 (centres unmarked) [benzoylmesaconine] | 85% | > 21.5 days | 14754 ± 1832 CPM ± SE | 20 to 500 mg/kg | survival rate [4]: 80%; suppressing rate ([5]; saline 81%): 4%; incorporation of ^3 H-thymidine ([5]; saline 1,730 ± 289): 8,826 ± 535 CPM ± SE; survival rate (cytomegalovirus (CMV); saline 0%): 100%; average survival days (cytomegalovirus (CMV); saline 12.4): > 22.1 days; survival rate (CMV; CMV 2.5×10^3 PFU/mouse, saline 0%): 100%; protective effect on CMV (CMV): protective effect |
| CCCCC[C@H](O)CC(=O)CCc1ccc(O)c(OC)c1 [gingerol] |  |  |  |  | average survival days ([6]; 25 days): > 24.4 days; survival rate [6, 8]: 90%; acute toxicity LD50 [7]: about 250 mg/kg |
| COCC12CCC(OC)C34C5CC6(O)C(O)C5C(O)(C(O)C6OC)C(C(OC)C13)C4N(C)C2 (centres unmarked) [hypaconine] | 85% | > 23.1 days | 14111 ± 2232 CPM ± SE | 20 to 500 mg/kg |  |
| C=C1[C@H]2C[C@@H]3[C@H]4N5C[C@@]6(C)[C@H]7[C@@H]5C[C@]3([C@@H]1O)[C@@](O)(C2)[C@]74C[C@@H](OC(=O)c1ccccc1)[C@@H]6O [ignavine] |  | > 21.9 days | 12831 ± 2255 CPM ± SE |  | survival rate [1, 8]: 75% |
| COCC12CN(C)C3C4C(OC)C1C3(C(OC)CC2O)C1CC2(O)C(O)C1C4(O)C(O)C2OC (centres unmarked) [mesaconine] | 85% | > 23.1 days | 15791 ± 2778 CPM ± SE | 20 to 500 mg/kg |  |
| CCN1CC2(COC)CCC(O)C34C5CC6C(OC)CC(O)(C5C6O)C(C(OC)C23)C14 (centres unmarked) [neoline] | 80% | > 22.3 days | 13744 ± 526 CPM ± SE | 20 to 500 mg/kg |  |
